Laboratory results: PubChem BioAssay AID488994 (Sanford-Burnham Center for Chemical Genomics, 2010)
The source made the active and inactive calls.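 The calls were made as follows: active = IC50 below 20 µM in the dose response test; inactive = the rest.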

Molecular target: Type-1 angiotensin II receptor (Homo sapiens) (UniProt P30556)
Assay: AT1 receptor antagonists, beta-arrestin recruitment, SAR follow-up, selectivity assay for APJ antagonist project, cell-based, CHO-K1 PathHunter, luminescence, set 2 (AID 488994)
Conditions: CHO-K1 AGTR1 PathHunter beta-arrestin

Type-1 angiotensin II receptor (Homo sapiens), sequence (P30556 whole entry, looked up): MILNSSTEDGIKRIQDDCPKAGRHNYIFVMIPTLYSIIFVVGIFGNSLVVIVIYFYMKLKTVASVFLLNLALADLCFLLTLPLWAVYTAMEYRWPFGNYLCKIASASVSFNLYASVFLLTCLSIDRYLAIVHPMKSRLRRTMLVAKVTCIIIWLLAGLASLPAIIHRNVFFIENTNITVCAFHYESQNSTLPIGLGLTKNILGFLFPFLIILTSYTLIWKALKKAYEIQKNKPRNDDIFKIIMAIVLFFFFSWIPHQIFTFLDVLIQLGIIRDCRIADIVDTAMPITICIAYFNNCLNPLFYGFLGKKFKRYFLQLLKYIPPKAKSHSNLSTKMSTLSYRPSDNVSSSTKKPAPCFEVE

IC50, inactive:
Cc1ccnc(SCc2cc(=O)c(OC(=O)C(C)(C)C)co2)n1 > 79 µM
Cc1ccnc(SCc2cc(=O)c(OC(=O)C(C)C)co2)n1 > 79 µM
COc1cc(CSc2nc(C)cc(C)n2)ccc1OC(=O)c1ccccc1 > 79 µM
Cc1ccnc(SCc2cc(=O)c(OCc3ccc(Cl)c([N+](=O)[O-])c3)co2)n1 > 79 µM
Cc1ccnc(SCc2cc(=O)c(OC(=O)c3ccno3)co2)n1 > 79 µM
CC(=O)Oc1coc(CSc2nccc(C)n2)cc1=O > 79 µM
COc1cc(CSc2nc(C)cc(C)n2)ccc1OC(=O)c1cccnc1 > 79 µM
Cc1ccnc(SCc2cc(=O)c(OC(=O)c3ccc([N+](=O)[O-])o3)co2)n1 > 79 µM
COc1cc(CSc2nc(C)cc(C)n2)ccc1OC(=O)c1ccc([N+](=O)[O-])cc1 > 79 µM
O=C(Nc1ccc(CSc2ncccn2)cc1)c1ccccc1 > 79 µM
